Assays:
[1] = Inhibition of Aurora1
[2] = biological target: T1, Hepatocyte growth factor receptor (Mus musculus, UniProt P16056); assay: Inhibition of HGF-mediated c-Met phosphorylation in mouse CT26 cells; format: cell-based
[3] = Intrinsic clearance in Beagle dog liver microsome; format: ADME, Canis lupus familiaris; conditions: liver microsomes
[4] = Oral bioavailability in Beagle dog at 10 mg/kg; format: ADME, organism-based, Canis lupus familiaris; conditions: in vivo
[5] = biological target: Tyrosine-protein kinase Fes/Fps (Homo sapiens, UniProt P07332); assay: Inhibition of FES
[6] = Half life in BALB/c mouse at 1 mg/kg, iv or 10 mg/kg, po; format: ADME, organism-based; conditions: in vivo
[7] = biological target: T2, Receptor-type tyrosine-protein kinase FLT3 (Homo sapiens, UniProt P36888); assay: Inhibition of FLT3
T2 sequence (P36888 whole entry): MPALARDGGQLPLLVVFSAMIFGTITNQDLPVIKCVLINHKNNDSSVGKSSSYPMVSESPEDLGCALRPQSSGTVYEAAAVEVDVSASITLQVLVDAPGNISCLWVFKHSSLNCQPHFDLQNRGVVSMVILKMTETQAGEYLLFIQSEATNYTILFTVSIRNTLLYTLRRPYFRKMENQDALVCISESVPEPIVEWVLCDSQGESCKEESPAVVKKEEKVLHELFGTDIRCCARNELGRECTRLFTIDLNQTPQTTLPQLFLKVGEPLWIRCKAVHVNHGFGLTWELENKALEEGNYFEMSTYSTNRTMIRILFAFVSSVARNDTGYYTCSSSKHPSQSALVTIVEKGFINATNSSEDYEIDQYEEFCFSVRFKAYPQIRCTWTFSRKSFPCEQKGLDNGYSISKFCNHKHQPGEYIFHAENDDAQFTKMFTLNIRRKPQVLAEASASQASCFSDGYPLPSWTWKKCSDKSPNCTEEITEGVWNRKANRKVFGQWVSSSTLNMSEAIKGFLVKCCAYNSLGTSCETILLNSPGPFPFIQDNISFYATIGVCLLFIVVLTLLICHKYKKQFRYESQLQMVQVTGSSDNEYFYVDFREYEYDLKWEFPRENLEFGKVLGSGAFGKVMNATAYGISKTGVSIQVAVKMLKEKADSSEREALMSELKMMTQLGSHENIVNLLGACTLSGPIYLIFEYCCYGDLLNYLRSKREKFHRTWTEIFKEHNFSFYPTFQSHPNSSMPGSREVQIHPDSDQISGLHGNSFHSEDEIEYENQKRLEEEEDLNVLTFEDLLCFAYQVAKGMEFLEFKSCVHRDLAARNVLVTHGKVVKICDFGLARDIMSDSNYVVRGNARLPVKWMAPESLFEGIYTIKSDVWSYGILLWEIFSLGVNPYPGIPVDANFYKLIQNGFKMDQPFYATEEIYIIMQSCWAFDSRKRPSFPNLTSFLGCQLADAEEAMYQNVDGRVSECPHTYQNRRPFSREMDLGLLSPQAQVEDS

[8] = biological target: Tyrosine-protein kinase Blk (Homo sapiens, UniProt P51451); assay: Inhibition of BLK
[9] = biological target: T3, Hepatocyte growth factor receptor (Homo sapiens, UniProt P08581); assay: Inhibition of human c-Met by HTRF assay
Mus musculus [10] = assay: Toxicity in human U87MG cells xenografted CD1 NU/NU mouse assessed as effect on body weight at 30 mg/kg and 100 mg/kg, qd for 14 days; format: organism-based, U-87MG ATCC; conditions: in vivo, 336 h
NIH3T3 = assay: Antitumor activity in TPR-Met expressing […] NIH3T3 cells xenografted in po dosed mouse assessed as tumor growth inhibition after 24 hrs; format: functional
Mus musculus [11] = assay: Toxicity in human U87MG cells xenografted CD1 NU/NU mouse assessed as effect on body weight at 30 mg/kg BID for 14 days; format: organism-based, U-87MG ATCC; design: dose 30 mg/kg; conditions: in vivo, 336 h
[12] = Volume of distribution at steady state in cynomolgus monkey at 1 mg/kg, iv or 10 mg/kg, po; format: ADME, organism-based, Macaca fascicularis; conditions: in vivo, read-out: Vdss
[13] = Drug level in po dosed BALB/c mouse plasma after 6 hrs; format: ADME, organism-based
[14] = Permeability from apical to basolateral side of human Caco-2 cell monolayer; format: ADME, cell-based; conditions: read-out: permeability
[15] = Inhibition c-Met […] mutant
Mus musculus [16] = assay: Inhibition of HGF-mediated c-Met phosphorylation in po dosed BALB/c mouse liver after 6 hrs; format: functional
[17] = Clearance in Beagle dog at 1 mg/kg, iv or 10 mg/kg, po; format: ADME, organism-based, Canis lupus familiaris; conditions: in vivo
[18] = Volume of distribution at steady state in Sprague-Dawley rat at 1 mg/kg, iv or 10 mg/kg, po; format: ADME, organism-based; conditions: in vivo
[19] = Intrinsic clearance in human liver microsome; format: ADME; conditions: liver microsomes
[20] = biological target: Macrophage colony-stimulating factor 1 receptor (Homo sapiens, UniProt P07333)
[21] = Half life in Beagle dog at 1 mg/kg, iv or 10 mg/kg, po; format: ADME, organism-based, Canis lupus familiaris; conditions: in vivo
[22] = Oral bioavailability in Sprague-Dawley rat at 10 mg/kg; format: ADME, organism-based; conditions: in vivo
[23] = Antitumor activity in human U87MG cells xenografted orally dosed CD1 NU/NU mouse assessed as tumor growth inhibition after 14 days; format: functional, U-87MG ATCC; conditions: U-87 MG, po, 336 h
[24] = biological target: T1, Hepatocyte growth factor receptor; assay: Inhibition of mouse c-Met by HTRF assay
[25] = biological target: Hepatocyte growth factor receptor (Homo sapiens, UniProt P08581, H1094R); assay: Inhibition c-Met H1094R mutant by HTRF assay
[26] = biological target: T3, Hepatocyte growth factor receptor; assay: Inhibition of HGF-mediated c-Met phosphorylation in human PC3 cells; format: cell-based, PC-3
[27] = biological target: Hepatocyte growth factor receptor (Homo sapiens, UniProt P08581, M1250T); assay: Inhibition c-Met M1250T mutant by HTRF assay
[28] = biological target: T4, Cytoplasmic tyrosine-protein kinase BMX (Homo sapiens, UniProt P51813); assay: Inhibition of BMX
T4 sequence (P51813 whole entry): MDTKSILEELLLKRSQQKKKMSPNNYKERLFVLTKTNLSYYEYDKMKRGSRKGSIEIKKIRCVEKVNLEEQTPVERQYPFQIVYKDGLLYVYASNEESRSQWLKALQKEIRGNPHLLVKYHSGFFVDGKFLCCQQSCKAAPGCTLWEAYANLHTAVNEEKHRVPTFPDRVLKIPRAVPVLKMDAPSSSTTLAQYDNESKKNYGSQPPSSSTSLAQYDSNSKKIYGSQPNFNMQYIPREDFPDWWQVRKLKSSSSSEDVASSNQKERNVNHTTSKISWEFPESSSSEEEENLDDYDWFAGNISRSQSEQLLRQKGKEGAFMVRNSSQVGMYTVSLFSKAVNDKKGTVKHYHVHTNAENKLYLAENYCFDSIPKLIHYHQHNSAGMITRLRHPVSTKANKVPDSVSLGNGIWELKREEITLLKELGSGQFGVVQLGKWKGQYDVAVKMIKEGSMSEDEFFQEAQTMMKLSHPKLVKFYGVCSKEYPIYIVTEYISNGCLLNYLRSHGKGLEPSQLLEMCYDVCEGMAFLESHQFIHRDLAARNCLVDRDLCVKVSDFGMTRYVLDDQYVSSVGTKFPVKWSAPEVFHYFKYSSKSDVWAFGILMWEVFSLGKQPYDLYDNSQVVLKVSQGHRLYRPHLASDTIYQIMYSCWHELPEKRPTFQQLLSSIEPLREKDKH

[29] = Volume of distribution at steady state in Beagle dog at 1 mg/kg, iv or 10 mg/kg, po; format: ADME, organism-based, Canis lupus familiaris; conditions: in vivo, read-out: Vdss
[30] = Clearance in Sprague-Dawley rat at 1 mg/kg, iv or 10 mg/kg, po; format: ADME, organism-based; conditions: in vivo
[31] = Inhibition of PDGF
[32] = biological target: Tyrosine-protein kinase Lyn (Homo sapiens, UniProt P07948); assay: Inhibition of Lyn
[33] = Oral bioavailability in cynomolgus monkey at 10 mg/kg; format: ADME, organism-based, Macaca fascicularis; conditions: in vivo
[34] = biological target: T5, Tyrosine-protein kinase ITK/TSK (Homo sapiens, UniProt Q08881); assay: Inhibition of ITK
T5 sequence (Q08881 whole entry): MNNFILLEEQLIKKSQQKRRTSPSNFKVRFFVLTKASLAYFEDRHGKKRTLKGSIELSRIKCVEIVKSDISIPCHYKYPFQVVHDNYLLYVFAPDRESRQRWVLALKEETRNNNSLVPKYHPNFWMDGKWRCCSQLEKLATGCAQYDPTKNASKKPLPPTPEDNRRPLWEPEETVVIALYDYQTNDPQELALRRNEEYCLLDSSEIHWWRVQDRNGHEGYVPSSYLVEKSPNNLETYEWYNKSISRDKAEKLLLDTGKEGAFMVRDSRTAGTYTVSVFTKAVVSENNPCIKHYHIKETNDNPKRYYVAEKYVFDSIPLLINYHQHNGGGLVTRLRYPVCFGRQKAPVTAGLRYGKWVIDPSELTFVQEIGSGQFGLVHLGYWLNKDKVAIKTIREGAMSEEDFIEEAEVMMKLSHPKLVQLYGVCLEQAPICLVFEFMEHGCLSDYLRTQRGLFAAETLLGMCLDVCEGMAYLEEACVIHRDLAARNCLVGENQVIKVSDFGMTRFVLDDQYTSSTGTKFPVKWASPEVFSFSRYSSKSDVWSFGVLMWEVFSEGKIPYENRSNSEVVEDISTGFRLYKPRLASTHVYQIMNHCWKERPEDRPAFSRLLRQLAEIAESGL

[35] = Volume of distribution at steady state in BALB/c mouse at 1 mg/kg, iv or 10 mg/kg, po; format: ADME, organism-based; conditions: in vivo, read-out: Vdss
[36] = Clearance in cynomolgus monkey at 1 mg/kg, iv or 10 mg/kg, po; format: ADME, organism-based, Macaca fascicularis; conditions: in vivo
[37] = Terminal half life in BALB/c mouse; format: ADME, organism-based; conditions: in vivo, read-out: beta t1/2
[38] = Inhibition of RON
[39] = Apparent permeability across pig LLC-PK1 cells; format: ADME, cell-based, Sus scrofa; conditions: read-out: permeability
[40] = Clearance in BALB/c mouse at 1 mg/kg, iv or 10 mg/kg, po; format: ADME, organism-based; conditions: in vivo
[41] = Oral bioavailability in BALB/c mouse at 10 mg/kg; format: ADME, organism-based; conditions: in vivo
[42] = Half life in cynomolgus monkey at 1 mg/kg, iv or 10 mg/kg, po; format: ADME, organism-based, Macaca fascicularis; conditions: in vivo
[43] = biological target: Hepatocyte growth factor receptor (Homo sapiens, UniProt P08581, D1228H); assay: Inhibition c-Met D1228H mutant by HTRF assay
[44] = Intrinsic clearance in BALB/c mouse liver microsome; format: ADME; conditions: liver microsomes
[45] = Terminal half life in Sprague-Dawley rat; format: ADME, organism-based; conditions: in vivo, read-out: beta t1/2
[46] = biological target: Tyrosine-protein kinase CSK (Homo sapiens, UniProt P41240); assay: Inhibition of CSK
[47] = Intrinsic clearance in cynomolgus monkey liver microsome; format: ADME, Macaca fascicularis; conditions: liver microsomes
[48] = biological target: Hepatocyte growth factor receptor (Homo sapiens, UniProt P08581, Y1230H); assay: Inhibition c-Met Y1230H mutant by HTRF assay
[49] = Half life in Sprague-Dawley rat at 1 mg/kg, iv or 10 mg/kg, po; format: ADME, organism-based; conditions: in vivo
[50] = biological target: Tyrosine-protein kinase Fgr (Homo sapiens, UniProt P09769); assay: Inhibition of FGR
[51] = Intrinsic clearance in Sprague-Dawley rat liver microsome; format: ADME; conditions: liver microsomes
[52] = biological target: T3, Hepatocyte growth factor receptor; assay: Inhibition of c-Met phosphorylation by HTRF assay

COc1ccc2c(Oc3ccc(NC(=O)c4c(C)n(CC(C)(C)O)n(-c5ccccc5)c4=O)nc3)ccnc2c1
IC50 [1]: 280 nM | IC50 [2]: 120 nM | microsomal CLint [3]: 8 µL/min/mg | bioavailability [4]: 100% | IC50 [5]: 706 nM | half-life [6]: 1.3 h | IC50 [7]: 391 nM | IC50 [8]: 519 nM | Ki [9]: 1.2 nM | Activity (Mus musculus [10]): Non-toxic | ED50 (NIH3T3): 12 mg/kg | ED90 (NIH3T3): 34 mg/kg | Activity (Mus musculus [11]): Non-toxic | Vd [12]: 0.56 L/kg | concentration at 6 h [13]: 15 µM | Papp A→B [14]: 32 ×10⁻⁶ cm/s | Ki [15]: 1.1 nM | ED90 (Mus musculus [16]): 30 mg/kg | clearance [17]: 5.67 mL/min/kg | Vd [18]: 0.62 L/kg | microsomal CLint [19]: 18 µL/min/mg | IC50 [20]: 238 nM | half-life [21]: 2.8 h | bioavailability [22]: 100% | ED50 [23]: 16 mg/kg | ED90 [23]: 59 mg/kg | Ki [24]: 2 nM | Ki [25]: 0.5 nM | IC50 [26]: 60 nM | Ki [27]: 4.1 nM | IC50 [28]: 363 nM | Vd [29]: 0.75 L/kg | clearance [30]: 12.2 mL/min/kg | IC50 [31]: 120 nM | IC50 [32]: 506 nM | bioavailability [33]: 78% | IC50 [34]: 62 nM | Vd [35]: 0.31 L/kg | clearance [36]: 1.67 mL/min/kg | half-life [37]: < 2 h | IC50 [38]: 8 nM | Papp [39]: 27 ×10⁻⁶ cm/s | clearance [40]: 2.67 mL/min/kg | bioavailability [41]: 100% | half-life [42]: 5.7 h | Ki [43]: 2.2 nM | microsomal CLint [44]: < 5 µL/min/mg | half-life [45]: < 2 h | IC50 [46]: 165 nM | microsomal CLint [47]: 8 µL/min/mg | Ki [48]: 4.5 nM | half-life [49]: 1 h | IC50 [50]: 328 nM | microsomal CLint [51]: 62 µL/min/mg

COc1ccc2c(Oc3ccc(NC(=O)c4c(C)n(CC(C)(C)O)n(-c5ccccc5)c4=O)cc3F)ccnc2c1
IC50 [26]: 50 nM | Ki [52]: 2.7 nM
